From patent US20150218212A1, “FLUORINATED EPOXYKETONE-BASED TETRAPEPTIDE COMPOUNDS AND USES THEREOF AS PROTEASOME INHIBITORS” (FLUORINOV PHARMA INC., priority 2012, published 2015) come the findings set out here.

The subject of one data set is HCC-2998. Kind of data set: NCI screening panel, HCC-2998 (Colon Cancer). Format: cell-based, human. Here is the method:
(§1) Representative compounds of Formula I were screened using the National Cancer Institute (NCI) screening panel, which consists of a panel of human tumor cell lines, representing leukemia, melanoma, and cancers of the lung, colon, ovary, breast, prostate and renal system.
(§2) After 24 h, two plates of each cell line are fixed in situ with TCA, to represent a measurement of the cell population for each cell line at the time of drug addition (Tz). Experimental drugs are solubilised in dimethyl sulfoxide at 400-fold the desired final maximum test concentration and stored frozen prior to use. At the time of drug addition, an aliquot of frozen concentrate is thawed and diluted to twice the desired final maximum test concentration with complete medium containing 50 μg/mL gentamicin. Additional four, 10-fold or ½ log serial dilutions are made to provide a total of five drug concentrations plus control. Aliquots of 100 μl of these different drug dilutions are added to the appropriate microtiter wells already containing 100 μl of medium, resulting in the required final drug concentrations.
(§3) Following drug addition, the plates are incubated for an additional 48 h at 37° C., 5% CO2, 95% air, and 100% relative humidity. For adherent cells, the assay is terminated by the addition of cold TCA (trichloroacetic acid). Cells are fixed in situ by the gentle addition of 50 μl of cold 50% (w/v) TCA (final concentration, 10% TCA) and incubated for 60 minutes at 4° C. The supernatant is discarded, and the plates are washed five times with tap water and air dried. Sulforhodamine B (SRB) solution (100 μl) at 0.4% (w/v) in 1% acetic acid is added to each well, and plates are incubated for 10 minutes at room temperature. After staining, unbound dye is removed by washing five times with 1% acetic acid and the plates are air dried. Bound stain is subsequently solubilised with 10 mM trizma base, and the absorbance is read on an automated plate reader at a wavelength of 515 nm. For suspension cells, the methodology is the same except that the assay is terminated by fixing settled cells at the bottom of the wells by gently adding 50 μl of 80% TCA (final concentration, 16% TCA). Using the seven absorbance measurements [time zero, (Tz), control growth, (C), and test growth in the presence of drug at the five concentration levels (Ti)], the percentage growth is calculated at each of the drug concentrations levels. Percentage growth inhibition is calculated as: [(Ti−Tz)/(C−Tz)]×100 for concentrations for which Ti>/=Tz and [(Ti−Tz)/Tz]×100 for concentrations for which Ti<Tz.
(§4) Three dose response parameters are calculated for each experimental agent. Growth inhibition of 50% (GI50) is calculated from [(Ti−Tz)/(C−Tz)]×100=50, which is the drug concentration resulting in a 50% reduction in the net protein increase (as measured by SRB staining) in control cells during the drug incubation. The drug concentration resulting in total growth inhibition (TGI) is calculated from Ti=Tz. The LC50 (concentration of drug resulting in a 50% reduction in the measured protein at the end of the drug treatment as compared to that at the beginning) indicating a net loss of cells following treatment is calculated from [(Ti−Tz)/Tz]×100=−50. Values are calculated for each of these three parameters if the level of activity is reached. However, if the effect is not reached or is exceeded, the value for that parameter is expressed as greater or less than the maximum or minimum concentration tested.

In the next data set the test system is OCI-AML-2. Kind of data set: Cell viability (MTS) assay, OCI-AML-2. The class given is cell-based. The note with it: Homo sapiens, OCI-AML2; OCI-AML-2, MTS, 72 hours, mean ± standard deviation. Here is the method:
Human multiple myeloma cell lines 8226, H929, JJN3, KMH11, KMS11, KMS18, LP1, MM1S, OPM2 and U266 were grown in Iscove modified Dulbecco's medium (IMDM). Human leukemia cell lines K562, OCI-AML2 and U937 were cultured in RPMI-1640 medium. Primary peripheral blood mononuclear cells were isolated from multiple myeloma patients by Ficoll density gradient centrifugation and bone marrow aspirates were obtained from multiple myeloma patients at the Princess Margaret Cancer Centre of the University Health Network (UHN; Toronto, ON, Canada). Primary cells were cultured in IMDM. The collection and use of human tissue for this study was approved by the UHN institutional ethics review board. All cell culture media were obtained from the Ontario Cancer Institute Tissue Culture Media Facility (Toronto, ON, Canada) and were supplemented with 10% fetal calf serum, […] (Hyclone, Logan, Utah). All cells were grown in a humidified incubator at 37° C. with 5% CO2.
Cellular viability was primarily assessed by 3-(4,5-dimethylthiazol-2-yl)-5-(3-carboxymethoxyphenyl)-2-(4-sulfophenyl)-2H-tetrazolium (MTS) assay according to the manufacturer's instructions (Promega; Madison, Wis.). Cells were first seeded at a density of 10,000 cells per well in tissue culture-treated 96-well plates. Two hours after seeding, cells were treated with compounds for 72 hours at concentrations as indicated. As a control, cells were treated with DMSO alone in every assay plate. Following treatment and the MTS assay, cell viability was independently confirmed by reading the optical density (O.D.) at 490 nm and by exclusion of trypan blue stain (Invitrogen; Burlington, ON, Canada). The viability of primary mononuclear cells was determined by staining with Annexin V.
Table 8 summarizes the data of representative compounds of Formula I for cell viability and CT-L proteasome activity with OCI-AML-2 and KMS-11 cell lines.

Another data set relates to MM.1S tumor cells. Kind of data set: Inhibition of tumor growth in myeloma MM.1S mouse xenograft model. The note with it: MM.1S xenograft mice. Format: in vivo. The method, then:
The mice were irradiated (200 rads) using a Co60 irradiator source. After 24 hrs, each mouse was inoculated subcutaneously with 5×10^6 MM.1S tumor cells in 0.1 mL PBS for tumor development. Treatments were started when the tumor volume reached 100 mm^3. Each treatment group consisted of 10 mice. The test articles of compounds of Formula I were administrated to the tumor-bearing mice according to a specific predetermined regimen.

Another data set concerns HOP-92. Kind of data set: NCI screening panel, HOP-92 (Non-Small Cell Lung Cancer). Format: cell-based, human. The method, then:
as §1, §2, §3, §4

Another data set relates to K-562. Kind of data set: NCI screening panel, K-562 (Leukemia). The class given is cell-based, human. The method, then:
as §1, §2, §3, §4

Molecules are shown by their SMILES.

In the case of `CC(C)C[C@H](NC(=O)[C@H](COC(F)F)NC(=O)CN1CCOCC1)C(=O)N[C@@H](COC(F)F)C(=O)N[C@@H](CC(C)C)C(=O)[C@@]1(C)CO1` [Example 1, (2S)—N-[(1S)-1-(difluoromethoxymethyl)-2-[[(1S)-3-methyl-1-[(2R)-2-methyloxirane-2-carbonyl]butyl]amino]-2-oxo-ethyl]-2-[[(2S)-3-(difluoromethoxy)-2-[(2-morpholinoacetyl)amino]propanoyl]amino]-4-methyl-pentanamide], the Log10GI50 with HCC-2998 is listed as −7.74; with HOP-92 it was −7.74; in the data set with K-562, −7.38. In addition, the Log10LC50 in the data set on HCC-2998 is reported as −7.16; in the data set with HOP-92 it was −6.50; in the data set with K-562 it was more than −4.00. Further, the Log10TGI50 in the data set on HCC-2998 was −7.45; with HOP-92, −7.30; in the data set with K-562, more than −4.00. Also, 24.2 ± 7.2 nM corresponded to half-maximal inhibition in the data set with OCI-AML-2 (IC50). Further, the “gross adverse effects including reductions in body weight or alterations in behaviour” value is “no gross adverse effects” in the data set with MM.1S tumor cells (4 mg/kg i.v, days 1, 3, 5/wk×28 days) and “no gross adverse effects” in the data set with MM.1S tumor cells (8 mg/kg i.v, days 1, 2/wk×4 wks).

The IC50 is the concentration that inhibits the measured activity by half.
